Measured values from patent US4086417A, “Cytidine nucleotide derivatives” (Asahi Kasei Kogyo Kabushiki Kaisha, priority 1974, dated 1978).
Counter-ions that a name gives are not always drawn.

Test system: leukemia L-1210
Test: Antitumour activity in mice inoculated intraperitoneally with leukemia L-1210 (survival, T/C)
Format: in vivo, CDF-1 male mice
Conditions: for Antileukemial effect on mice (in words): L-1210 in mice, conclusions in words; for response vs control in vivo at 100 mg/kg / response vs control in vivo at 200 mg/kg / response vs control in vivo at 400 mg/kg: Mus musculus, L1210, ip, directly after injection of L-1210, after 2 days and after 6 days; for response vs control in vivo at 100 mg/kg: 100 mg/kg i.p.; for response vs control in vivo at 200 mg/kg: 200 mg/kg i.p.; for response vs control in vivo at 400 mg/kg: 400 mg/kg i.p.
Method: The antitumour activity for mice of the test material was evaluated by means of survival rate comparison, T/C (%), that is, 100 times the mean survival period of the groups injected with the test material divided by the mean survival period of the comparison groups which were not injected with the test material.
Further, for comparison, the following materials were also subjected to the same biological test: […]

Structure (SMILES)	Antileukemial effect on mice (in words)	response vs control in vivo at 100 mg/kg [%]	response vs control in vivo at 200 mg/kg [%]	response vs control in vivo at 400 mg/kg [%]
Nc1ccn([C@@H]2O[C@H](COP(=O)(O)O)[C@@H](O)[C@@H]2O)c(=O)n1 [Ara-C-5'-p.circle., 1-β-D-arabinofuranosylcytosine-5'-phosphate]	inferior to 1-β-D-arabinofuranosylcytosine in antileukemical effect on mice	119	131	143
CCCCCC(=O)Nc1ccn([C@@H]2O[C@H](COP(=O)(O)O)[C@@H](O)[C@@H]2O)c(=O)n1 [N^4 -Caproyl-5'-PNa]		103	105	101
CCCCCCCC(=O)Nc1ccn([C@@H]2O[C@H](CO)[C@@H](O)[C@@H]2O)c(=O)n1 [N^4 -Caprylyl-Ara-C]		123	127	163
CC(=O)Nc1ccn([C@@H]2O[C@H](CO)[C@@H](O)[C@@H]2O)c(=O)n1 [N^4 -Acetyl-Ara-C]		125	125	125
CCCC(=O)Nc1ccn([C@@H]2O[C@H](CO)[C@@H](O)[C@@H]2O)c(=O)n1 [N^4 -Butyryl-Ara-C]		131	131	139
CCCCCCCCCC(=O)Nc1ccn([C@@H]2O[C@H](CO)[C@@H](O)[C@@H]2O)c(=O)n1 [N^4 -Capryl-Ara-C]		159	188	> 284
CCCCCCCCCCCCCC(=O)Nc1ccn([C@@H]2O[C@H](CO)[C@@H](O)[C@@H]2O)c(=O)n1 [N^4 -Myristoyl-Ara-C, N^4-myristoyl-1-β-D-arabinofuranosylcytosine]		206	127	90
CC(=O)Nc1ccn([C@@H]2O[C@H](COP(=O)(O)O)[C@@H](O)[C@@H]2O)c(=O)n1 [N^4 -Acetyl-5'-PNa]		101	99	99
CCCCCCCCCCCCCCC(=O)Nc1ccn([C@@H]2O[C@H](COP(=O)(O)O)[C@@H](O)[C@@H]2O)c(=O)n1 [N^4 -Pentadecanoyl-5'-PNa]		> 302	> 287	86
CCCCCCCCCCCCCCCCCCCC(=O)Nc1ccn([C@@H]2O[C@H](CO)[C@@H](O)[C@@H]2O)c(=O)n1 [N^4 -Arachidoyl-Ara-C]		313	128	105
CCCCCCCCCCCCCCCCCCCC(=O)Nc1ccn([C@@H]2O[C@H](COP(=O)(O)O)[C@@H](O)[C@@H]2O)c(=O)n1 [N^4 -Arachidoyl-5'-PNa, N^4-arachidoyl-1-β-D-arabinofuranosylcytosine-5'-phosphate monosodium]		320	130	106
CCCCCCCCCCCCCC(=O)Nc1ccn([C@@H]2O[C@H](COP(=O)(O)O)[C@@H](O)[C@@H]2O)c(=O)n1 [N^4 -Myristoyl-5'-PNa, N^4 -Myristoyl-1-β-D-arabinofuranosylcytosine-5'-phosphate monosodium]		> 219	> 261	93
CCCCCCCC(=O)Nc1ccn([C@@H]2O[C@H](COP(=O)(O)O)[C@@H](O)[C@@H]2O)c(=O)n1 [N^4 -Caprylyl-5'-PNa]		103	101	99
CCCCCCCCCCCC(=O)Nc1ccn([C@@H]2O[C@H](COP(=O)(O)O)[C@@H](O)[C@@H]2O)c(=O)n1 [N^4 -Lauroyl-5'-PNa]		110	115	115
CCCCCCCCCCCCCCCCCC(=O)Nc1ccn([C@@H]2O[C@H](CO)[C@@H](OP(=O)(O)O)[C@@H]2OP(=O)(O)O)c(=O)n1 [N^4-stearoyl-Ara-C-2',3'-(PNa)2]		184	119	103
CCCC(=O)Nc1ccn([C@@H]2O[C@H](COP(=O)(O)O)[C@@H](O)[C@@H]2O)c(=O)n1 [N^4 -Butyryl-5'-PNa]		105	102	100
CCCCC(=O)Nc1ccn([C@@H]2O[C@H](COP(=O)(O)O)[C@@H](O)[C@@H]2O)c(=O)n1 [N^4 -Valeryl-5'-PNa]		101	99	101

Structure (SMILES)	Antileukemial effect on mice (in words)	response vs control in vivo at 100 mg/kg [%]	response vs control in vivo at 200 mg/kg [%]	response vs control in vivo at 400 mg/kg [%]
CCCCC(=O)Nc1ccn([C@@H]2O[C@H](CO)[C@@H](O)[C@@H]2O)c(=O)n1 [N^4 -Valeryl-Ara-C]		133	171	191
CCC(=O)Nc1ccn([C@@H]2O[C@H](COP(=O)(O)O)[C@@H](O)[C@@H]2O)c(=O)n1 [N^4 -Propionyl-5'-PNa]		99	100	101
CCCCCC(=O)Nc1ccn([C@@H]2O[C@H](CO)[C@@H](O)[C@@H]2O)c(=O)n1 [N^4 -Caproyl-Ara-C]		125	133	150
CCCCCCCCCCCCCCCCCC(=O)Nc1ccn([C@@H]2O[C@H](CO)[C@@H](O)[C@@H]2OP(=O)(O)O)c(=O)n1 [N^4-stearoyl-Ara-C-2'-PNa, N^4-stearoyl-1-β-D-arabinofuranosylcytosine-2'-phosphate monosodium salt]		228	146	121
CCC(=O)Nc1ccn([C@@H]2O[C@H](CO)[C@@H](O)[C@@H]2O)c(=O)n1 [N^4 -Propionyl-Ara-C]		131	131	135
CCCCCCCCCCCCCCCCCCC(=O)Nc1ccn([C@@H]2O[C@H](COP(=O)(O)O)[C@@H](O)[C@@H]2O)c(=O)n1 [N^4 -Nonadecanoyl-5'-PNa, N^4-nonadecanoyl-1-β-D-arabinofuranosylcytosine-5'-phosphate monosodium]		385	232	102
CCCCCCCCCCCCCCCCCCCCCC(=O)Nc1ccn([C@@H]2O[C@H](CO)[C@@H](O)[C@@H]2O)c(=O)n1 [N^4 -Behenoyl-Ara-C]		313	260	256
CCCCCCCCCCCCCCCCCC(=O)Nc1ccn([C@@H]2O[C@H](COP(=O)(O)O)[C@@H](O)[C@@H]2O)c(=O)n1 [N^4-stearoyl-1-β-D-arabinofuranosylcytosine-5'-phosphate]	had the highest antileukemial effect on mice			
CCCCCCCCCCCCCCC(=O)Nc1ccn([C@@H]2O[C@H](CO)[C@@H](O)[C@@H]2O)c(=O)n1 [N^4 -Pentadecanoyl-Ara-C]		302	287	91
CCCCCCCCCCCCCCCCCCC(=O)Nc1ccn([C@@H]2O[C@H](CO)[C@@H](O)[C@@H]2O)c(=O)n1 [N^4 -Nonadecanoyl-Ara-C]		382	216	134
CCCCCCCCCC(=O)Nc1ccn([C@@H]2O[C@H](COP(=O)(O)O)[C@@H](O)[C@@H]2O)c(=O)n1 [N^4 -Capryl-5'-PNa]		103	102	98
CCCCCCCCCCCCCCCCCC(=O)Nc1ccn([C@@H]2O[C@H](COP(=O)(O)O)[C@@H](OP(=O)(O)O)[C@@H]2O)c(=O)n1 [N^4-stearoyl-Ara-C-3',5'-(PNa)2]		215	138	107
CCCCC/C=C\C/C=C\C/C=C\C/C=C\CCCC(=O)Nc1ccn([C@@H]2O[C@H](CO)[C@@H](O)[C@@H]2O)c(=O)n1 [N^4 -Arachidonoyl-Ara-C]		269	137	114
CCCCCCCCCCCCCCCCCCCCCC(=O)Nc1ccn([C@@H]2O[C@H](COP(=O)(O)O)[C@@H](O)[C@@H]2O)c(=O)n1 [N^4 -Behenoyl-5'-PNa]		316	280	270
CCCCC/C=C\C/C=C\C/C=C\C/C=C\CCCC(=O)Nc1ccn([C@@H]2O[C@H](COP(=O)(O)O)[C@@H](O)[C@@H]2O)c(=O)n1 [N^4 -Arachidonoyl-5'-PNa, N^4-arachidonoyl-1-β-D-arabinofuranosylcytosine-5'-phosphate monosodium]		274	148	115
CCCCCCCCCCCCCCCCCC(=O)Nc1ccn([C@@H]2O[C@H](CO)[C@@H](OP(=O)(O)O)[C@@H]2O)c(=O)n1 [N^4-stearoyl-Ara-C-3'-PNa]		286	219	112
CCCCC/C=C\C/C=C\CCCCCCCC(=O)Nc1ccn([C@@H]2O[C@H](COP(=O)(O)O)[C@@H](O)[C@@H]2O)c(=O)n1 [N^4 -Linoleoyl-5'-PNa]		275	145	120
